Measured values taken from patent US5696276A, “Process for preparing 5,8-dihydroxynaphthoquinone derivatives, novel 5,8-dihydroxynaphthoquinone derivatives and their use as anticancer agent” (Kuhnil Pharmaceutical Co., Ltd., priority 1993, dated 1997).
≈ marks a conversion by molar mass, not a printed value.

How the values were obtained:
S-180 sarcoma cells = assay: Animal experiment using Sarcoma S-180 cells (survival of mouse); format: in vivo, male ICR mouse; details: ip, S-180 ICR mouse, intraperitoneal, 7 to 8 injections; for responders at 10 µmol/kg / response vs control in vivo at 10 µmol/kg: daily dose 10 μmole (mg/kg/day given per compound)
Procedure: In this experiment, healthy male ICR mouse weighing 20 to 25 g were used as test animal and were fed with water and feed without any restriction in the chamber controlled at the temperature of 23° to 24° C. As the feed, the antibiotic-free feed for mouse was used.
S-180 cells which were incubated for 7 days within abdominal cavity of ICR mouse were separated together with ascites. To the separated cells was added sterilized cold physiological saline and the mixture was centrifuged with 400×g for 2 minutes to separate the cell precipitate. The separated cell precipitate was suspended again in sterilized cold physiological saline and then centrifuged to remove the supernatant. Only S-180 cells were taken, excluding any red bllod cells incorporated therein, washed three times with the same method as above, and then suspended to obtain the cell suspension in concentration of 10^7 cells/ml by counting the number of cells with a haemacytometer. Each 0.1 ml of this cell suspension was transplanted in an abdominal cavity.
After 24 hours from the transplantation, mouse were divided so that each group contains 8 to 9 mouse. The test sample was dissolved in a predetermined amount of dimethylsulfoxide to prepare the stock solution which was stored at 4° C. 30 μl of the stock solution was taken and then mixed with 1.5 ml of physiological saline. 0.1 ml of this mixture was intraperitoneally injected to the test animal. To the control group, 2% dimethylsulfoxide-physiological saline solution was injected. Meanwhile, doxorubicin which is used as the comparative drug was dissolved in 2% dimethylsulfoxide-physiological saline solution and then injected in an amount of 0.5 mg(titer)/kg. The schedule for injection comprises a total of 7 to 8 injections in the manner that after the transplantation of cancer cells 0.1 ml of the test sample per a day is administered for 2 to 4 days followed by the rest for one day. The survival rate was calculated on the basis of the date on which all of one control group is died (approximately 18 to 20 days). The survival rate (T/C, %) was calculated by the following equation as proposed in NIC's protocol: [formula]

L1210 cells = assay: Cytotoxic activity against L1210 cells; format: cell-based; details: Mus musculus; L1210 cells, 48 hours, 37° C.; read-out: ED50, cytotoxic activity against L1210
Procedure: To obtain L1210 cells in a logarithmic phase for cytotoxic activity test, in a 250 ml Erlenmeyer flask with a screw cap including Fisher medium warmed to 36° to 37° C. L1210 cells were adjusted to a concentration of 2-3×10^5 cells/ml and then cultured, before 24 hours from the beginning of experiment. Then, the culture solution thus obtained was suspended to prepare a L1210 cell suspension having a concentration of about 0.8-1.0×10^6 cells/ml. Test sample was dissoved in ethanol or dimethylsulfoxide in a certain concentration just before the experiment. 0.1 ml of the sample solution was diluted 10 times with 0.9 ml of a fresh medium. To each screw-capped test tube were added 100, 50, 25 μl, respectively, of the sample dilutions and then added 5 ml of the cell suspension (5×10^4 cells/ml) prepared above to use as the test group. To the test tubes for the control group (2√n: n=number of the samples), only 5 ml of the cell suspension was added. All test tubes were cultured for 48 hours in a CO2 incubator at 37° C. and then the number of cells was counted using a haemacytometer.
(§1) The ED50 value is defined as a concentration (μg/ml) of the sample which inhibits the growth of cancer cells by 50% of the control group and determined according to a method described in NIC's mannual (NIC=National Cancer Institue, U.S.A.). The growth rate Y(%) of cells in the presence of the test sample in each concentration was calculated according to the followign equation: […]
(§2) In the above equation, T means the average cell number per ml in the test group after incubation for 48 hours in the presence of the test samples in each concentration, C means the average cell number per ml in the control group after incubation for 48 hours, and Co means the average cell number per ml in the control group at the beginning of incubation. The Y(%) value at each concentration and log10 value of each concentration were obtained and the regression curve was constructed according to the following equation from those obtained values. In this case, when all the Y(%) value obtained at each concentration is greater than 55% or lower than 45%, the experiment was repeatedly conducted.
(§3) To construct the regression curve Y=A+BX the values A and B were obtained using the following equation. [formula]
(§4) In the above, the value N is the number of selected points which is greater than 2 and lower than, or identical with, the number of cencentration of the test sample, Xi is log(concentration) i, and Yi is the growth ratio at (concentration)i. The value of ED50 was obtained for those obtained slope and intercept.

A549 cancer cells = assay: Cytotoxic activity against A549 cancer cells (sulforhodamin B method); format: cell-based; details: Homo sapiens; A549 cells, SRB method, 48 hours; read-out: ED50, cytotoxic activity against A549
Procedure: The cytotoxic activity against A549 cancer cells was determined using a method for measuring sulforhodamin B (SRB), which was developed in the year 1989 by NIC for measuring anticancer activity of the drug in vitro. For the experiment, cells under subculturing were separated from the attached surface with trypsin-CDTA solution and then dispensed into a 24-well flat-bottom microplate (Falcon) so that the number of cells per well is 8×10^4 (A549). The microplate was incubated in a CO2 incubator for 24 hours to attach the dispensed cells to bottom. The medium was removed with aspirator. Then, 100 μl of the solution of the test compounds diluted in a log-dose of 6 kinds of concentration was added to each well containing cells, in a multiple of 3. The microplate was incubated for further 48 hours. In addition, the diluted solution of the test compounds above was filtered through a 0.22 μm filter, before addition to the cells, to keep the experiment under sterilized condition. The cells were incubated with the test compounds for 48 hours and then the medium was removed from each well. 100 μl of 10% trichloroacetic acid (TCA) was added to each well and then the plate was allowed to stand at 4° C. for one hour to fix the cells to the bottom of plate. After fixing the cells, the plate was washed 5 to 6 times with water to completely remove any remaining TCA solution and then dried at room temperature until water is no longer present. To the completely dried plate was added the dying solution of 0.4% SRB dissolved in 1% acetic acid in an amount of 250 μl per well to stain the cells for 30 minutes and then the plate was washed again 5 to 6 times with 1% acetic acid solution to remove the remaining SRB which is not bound to the cells. The stained cell plate was dried again at room temperature. Then, the dying solution was carefully dissolved in a certain amount of 10 mM Tris so that the O.D. value in the control group at 520 nm is 0.8-1.0 Å (optical density), and the optical density at 520nm was determined. The ED50 value was obtained from the determined optical density. To calculate the activity of the drug against cancer cells, the number of cells (Tz) at the beginning of the addition of drug, the number of cells (C) after incubation with the medium in the absence of drug for 48 hours and the number of cells (T) after incubation in the presence of drugs at each concentration for 48 hours were determined.
The anticancer activity of the test compounds was determined form the following equations. Specifically, in the […] the equation (T-Tz)/(C-Tz)×100 was used and in the case of Tz<T the equation (T-Tz)/Tz×100 was used. Then the IC50 value wich is the concentration of drug which inhibits the growth of cancer cells by 50% was calcualted from the above calculated values using a data regressive function of LOTUS programme and the cytotoxic activities of the test compounds were compared with each other.

HL-60 cells = assay: Cytotoxic activity against HL-60 cells; format: cell-based; details: Homo sapiens; HL-60 cells, 48 hours, 37° C.; read-out: ED50, cytotoxic activity against HL-60
Procedure: (§5) As in the test for the cytotoxic activity against L1210 cells, the test samples were dissoved in ethanol or dimethylsulfoxide in a certain concentration. 0.1 ml of the sample solution was mixed with 0.9 ml of a fresh medium to prepare the dilutions. To each two test tubes having a screw cap were added 100, 50, 25 μl, respectively, of the sample dilutions by means of a micropipet. To each test tube for the test group and the control group (2√n: n=number of the samples) was added 5 ml of the dilutions of HL-60 cells and K-562 cells which were cultured and activated before 24 hours from the beginning of experiment and then diluted in a concentration of 1×10^5 cells/mi. All test tubes were cultured for 48 hours in a CO2 incubator at 37° C. and then the number of cells was counted using a haemacytometer.
as §1, §2, §3, §4

K-562 cells = assay: Cytotoxic activity against K-562 cells; format: cell-based; details: Homo sapiens; K562 cells, 48 hours, 37° C.; read-out: ED50, cytotoxic activity against K562
Procedure: as §5, §1, §2, §3, §4

[1] = 1200 h, read-out: Number of mouse survived for 50 days (converted)

Row | Compound | responders at 10 µmol/kg (S-180 sarcoma cells; [1]) [%] | response vs control in vivo at 10 µmol/kg (S-180 sarcoma cells; read-out: T/C) [%] | IC50 (L1210 cells) [µg/mL] | IC50 (A549 cancer cells) [µg/mL] | IC50 (HL-60 cells) [µg/mL] | responders at 15 µmol/kg (S-180 sarcoma cells; 1200 h, daily dose 15 μmole (mg/kg/day given per compound), read-out: Number of mouse survived for 50 days (converted)) [%] | response vs control in vivo at 15 µmol/kg (S-180 sarcoma cells; daily dose 15 μmole (mg/kg/day given per compound), read-out: T/C) [%] | responders at 5 µmol/kg (S-180 sarcoma cells; 1200 h, daily dose 5 μmole (mg/kg/day given per compound), read-out: Number of mouse survived for 50 days (converted)) [%] | response vs control in vivo at 5 µmol/kg (S-180 sarcoma cells; daily dose 5 μmole (mg/kg/day given per compound), read-out: T/C) [%] | IC50 (K-562 cells) [µg/mL]
1 | CC(C)=CCC(OC(=O)CCl)C1=CC(=O)c2c(O)ccc(O)c2C1=O (stereo not drawn) [2-(1-monochloroacetyloxy-4-methyl-3-pentenyl)-5,8-dihydroxy-1,4-naphthoquinone] | 0 | 102 | 0.12 (≈ 0.329 µM) | 4 (≈ 11 µM) | 0.3 (≈ 0.822 µM) | – | – | – | – | –
2 | CCCCC(=O)OC(CC=C(C)C)C1=CC(=O)c2c(O)ccc(O)c2C1=O (stereo not drawn) [2-(1-n-pentanoyloxy-4-methyl-3-pentenyl)-5,8-dihydroxy-1,4-naphthoquinone] | 0 | 165 | 0.2 (≈ 0.537 µM) | 2.5 (≈ 6.71 µM) | 0.6 (≈ 1.61 µM) | – | – | – | – | –
3 | CC(C)=CCC(OC(=O)Cc1ccccc1)C1=CC(=O)c2c(O)ccc(O)c2C1=O (stereo not drawn) [2-(1-phenylacetyloxy-4-methyl-3-pentenyl)-5,8-dihydroxy-1,4-naphthoquinone] | 0 | 183 | 0.1 (≈ 0.246 µM) | 1.1 (≈ 2.71 µM) | 0.4 (≈ 0.984 µM) | – | – | – | – | –
4 | CCCCCCCCCCCC(=O)OC(CC=C(C)C)C1=CC(=O)c2c(O)ccc(O)c2C1=O (stereo not drawn) | – | – | 0.7 (≈ 1.49 µM) | > 20 | 1 (≈ 2.12 µM) | 0 | 110 | – | – | –
5 | CC/C=C/CC(=O)OC(CC=C(C)C)C1=CC(=O)c2c(O)ccc(O)c2C1=O (stereo not drawn) [2-[1-trans-(3-hexenoyl)oxy-4-methyl-3-pentenyl]-5,8-dihydroxy-1,4-naphthoquinone] | 25 | 200 | 0.3 (≈ 0.78 µM) | 3.3 (≈ 8.58 µM) | 0.9 (≈ 2.34 µM) | – | – | – | – | –
6 | CCCCCC(OC(C)=O)C1=CC(=O)c2c(O)ccc(O)c2C1=O (stereo not drawn) [2-(1-acetoxyhexyl)-5,8-dihydroxy-1,4-naphthoquinone] | – | – | 0.08 (≈ 0.241 µM) | 0.7 (≈ 2.11 µM) | – | – | – | 25 | 150 | 0.01 (≈ 0.0301 µM)
7 | CCOC(CCC(C)C)C1=CC(=O)c2c(O)ccc(O)c2C1=O (stereo not drawn) [2-(1-ethoxy-4-methylpentyl)-5,8-dihydroxy-1,4-naphthoquinone] | 0 | 105 | 0.04 (≈ 0.126 µM) | 1.7 (≈ 5.34 µM) | – | – | – | – | – | 0.08 (≈ 0.251 µM)
8 | CC/C=C/CC(=O)OC(CCCCCCCCC)C1=CC(=O)c2c(O)ccc(O)c2C1=O (stereo not drawn) [2-[1-(3-trans-hexenoyloxy)-decyl]-5,8-dihydroxy-1,4-naphthoquinone] | 0 | 130 | 0.6 (≈ 1.36 µM) | 7.1 (≈ 16 µM) | – | – | – | – | – | 0.6 (≈ 1.36 µM)
9 | CC/C=C/CC(=O)OC(CCC(C)C)C1=CC(=O)c2c(O)ccc(O)c2C1=O (stereo not drawn) [2-[1-(3-trans-hexenoyloxy)-4-methylpentyl]-5,8-dihydroxy-1,4-naphthoquinone] | 0 | 160 | 0.05 (≈ 0.129 µM) | 2.4 (≈ 6.21 µM) | – | – | – | – | – | 0.2 (≈ 0.518 µM)
10 | CCCCCCCCCCCCC(O)C1=CC(=O)c2c(O)ccc(O)c2C1=O (stereo not drawn) [2-(1-hydroxytridecyl)-5,8-dihydroxy-1,4-naphthoquinone] | 0 | 113 | 0.3 (≈ 0.772 µM) | 4.4 (≈ 11.3 µM) | – | – | – | – | – | 0.4 (≈ 1.03 µM)
11 | COc1ccc(OC)c2c1C(=O)C=C(C(O)CCC(C)C)C2=O (stereo not drawn) [2-(1-hydroxy-4-methylpentyl)-5,8-dimethoxy-1,4-naphthoquinone] | 0 | 120 | 0.02 (≈ 0.0628 µM) | 2.2 (≈ 6.91 µM) | – | – | – | – | – | 0.9 (≈ 2.83 µM)
12 | CC/C=C/CC(=O)OC(CCCCC)C1=CC(=O)c2c(O)ccc(O)c2C1=O (stereo not drawn) [2-[1-(3-trans-hexenoyloxy)-hexyl]-5,8-dihydroxy-1,4-naphthoquinone] | 0 | 105 | 0.2 (≈ 0.518 µM) | 1.5 (≈ 3.88 µM) | – | – | – | – | – | 0.2 (≈ 0.518 µM)
